The numbers were not newly measured in patent US20110237832A1, “SYNTHESIS OF HDAC INHIBITORS: TRICHOSTATIN A AND ANALOGUES” (University of Notre Dame du Lac, priority 2010, published 2011), which cites them from elsewhere.

A word on the IC50: it is the midpoint of a concentration-inhibition curve.

The data set relates to HDACs. Conditions: read-out: inhibits the activity of HDACs, IC50 value; in human T cells.

On to `CC(/C=C/C(=O)NO)=C\[C@@H](C)C(=O)c1ccc(N(C)C)cc1` [TSA, (+)-Trichostatin A], for which the IC50 is 70 nM.
